This note sets out measurements from PubChem BioAssay (NCI).

Holding throughout (test): inhibition of tumour cell growth, NCI panel, 48 h
For test [1], the system named is DU-145 prostate.
Test [2] concerns A549 NSCLC.
For test [3], the system named is OVCAR-8 ovarian.
Test [4] concerns SW-620 colon.
Test [5] deals with NCI-H23 lung.
Test [6] concerns HCC-2998 colon.
The subject of test [7] is UACC-257 melanoma.
In test [8] the test system is OVCAR-4 ovarian.

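In this assay, cells in 96-well plates receive the compound at five concentrations for 48 hours. Endpoints are linearly interpolated between the surrounding concentrations. At the GI50, growth is halved. The concentration for full growth arrest is given as TGI.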 Where only a bound is given, the exact number is not on record here.

Consider `CCCNc1ncnc2[nH]ncc12`, for which the TGI in test [1], in test [2], in test [3], in test [4], in test [5] and in test [6] was more than 100 µM throughout. Moreover, the TGI in test [7] and in test [8] was more than 100 µM throughout.
On to `CN(C)c1ccc(/C=C2\N=C(c3ccccc3)N(c3ccc4c(c3)Sc3cc(N5C(=O)/C(=C/c6ccc(N(C)C)cc6)N=C5c5ccccc5)ccc3N4)C2=O)cc1`, for which the TGI in test [1] is 76.1 µM; in test [2], 52.2 µM; in test [3], 34.4 µM; in test [4], more than 100 µM; in test [6] it was 37.9 µM; in test [7], 38.2 µM. This molecule came in with a TGI in test [8] of 61 µM.
In the case of `CN1C(=O)C(O)CC1c1cccc(C(F)(F)F)c1` (stereo not drawn), the TGI in test [1], in test [2], in test [3], in test [4], in test [5] and in test [6] was more than 100 µM in each case. Also, the TGI in test [7] and in test [8] was more than 100 µM throughout.
With `CSc1ccc(/C=C2\N=C(c3ccccc3)N(/N=C/c3cc4cc(C)ccc4nc3Cl)C2=O)cc1`, the TGI in test [1] is 36 µM; in test [2], 59 µM; in test [3], 42.4 µM; in test [4], more than 100 µM; in test [6], 35.5 µM; in test [7], 39.8 µM. The same molecule came in with a TGI in test [8] of 39.3 µM.
For `Cc1ccccc1OC(C)C(=O)NN1C(=O)CC(=O)N(c2ccccc2)C1=S` (stereo not drawn), the TGI in test [1], in test [2], in test [3], in test [4], in test [5] and in test [6] was more than 100 µM throughout. For the same molecule, the TGI in test [7] and in test [8] was more than 100 µM in each case.
Turning to `S=C(NCc1ccccc1)N/N=C/c1ccccn1`, the TGI in test [1] was more than 100 µM; in test [2], more than 100 µM; in test [3], more than 76.2 µM; in test [4], more than 61.4 µM; in test [5], more than 100 µM; in test [6], more than 68.5 µM. Besides, the TGI in test [7] and in test [8] was more than 100 µM in each case.
`COc1ccc(-c2cc(C(O)C3CCCCN3)c3ccccc3n2)cc1` (stereo not drawn): the TGI in test [1] was determined as 20.5 µM; in test [2], 27.8 µM; in test [3], 29.5 µM; in test [4], 25.2 µM; in test [5], 31.6 µM; in test [6], 3.7 µM. Besides, the TGI in test [7] was found to be 4.48 µM; in test [8], 27.5 µM.
Turning to `COC(=O)c1c(-c2ccc(Cl)cc2)cc2c3ccccc3n(C)c2c1C(=O)OC`, the TGI in test [1], in test [2], in test [3], in test [4], in test [5] and in test [7] was more than 100 µM throughout. In test [8], this molecule displayed a TGI of more than 100 µM.
As for `Cc1cc2cc3c(cc2c(-c2ccc(N)cc2)n1)OCO3`, the TGI in test [1], in test [2], in test [3], in test [4], in test [5] and in test [7] was more than 100 µM in each case.
On to `Cc1[nH]c(=O)[nH]c(=S)c1C(=O)Nc1cccc2cc3ccccc3cc12`, for which the TGI in test [1], in test [3], in test [4], in test [5], in test [6] and in test [8] was more than 100 µM in each case.
For `NS(=O)(=O)c1ccc(NNc2c3ccccc3nc3c(C(=O)Nc4ccc(S(=O)(=O)Nc5ncccn5)cc4)cccc23)cc1`, the TGI in test [1], in test [2], in test [3], in test [4], in test [5] and in test [6] was more than 25 µM in each case. Further, the TGI in test [7] and in test [8] was more than 25 µM in each case.
In the case of `COc1ccc(CCN2CCc3c(C)c(C#N)c4nc5ccccc5n4c32)cc1OC`, the TGI is more than 100 µM in test [1]; more than 100 µM in test [2]; more than 100 µM in test [3]; 97.3 µM in test [4]; more than 100 µM in test [5]; more than 100 µM in test [6]. Further, the TGI in test [7] and in test [8] was more than 100 µM throughout.
Take `COc1ccc(C(O)CC(O)(C(F)(F)F)C(F)(F)F)cc1` (stereo not drawn): the TGI in test [1] is more than 100 µM; in test [2], more than 100 µM; in test [3] it was more than 100 µM; in test [4], more than 100 µM; in test [5], 77.5 µM; in test [6], more than 100 µM. In addition, the values for the TGI in test [7] and in test [8] were 51.8 µM and more than 100 µM, respectively.
With `CCN(CC)CCN(C(=O)C(C)(C)C)c1ccccc1N`, the TGI in test [1], in test [2], in test [3], in test [4], in test [5] and in test [7] was more than 100 µM throughout. In test [8], this molecule showed a TGI of more than 100 µM.
Consider `CCN(CC)c1nc(N(C)C)c2ccccc2n1`, for which the TGI in test [2] was more than 100 µM; in test [3], more than 100 µM; in test [4], more than 100 µM; in test [5], more than 100 µM; in test [6], 38.3 µM; in test [7], more than 100 µM. The TGI in test [8] was more than 100 µM.
For the molecule `Cn1c2ccccc2n2c3ncccc3c(=S)c(C#N)c12`, the TGI in test [1], in test [2], in test [3], in test [4], in test [5] and in test [6] was more than 100 µM each time. Further, the TGI in test [8] is more than 100 µM.
With `CC(C)(C)OC(=O)n1cc(C2CN(O)C(=O)C23CCC(=O)N3Cc2ccccc2)c2ccccc21` (stereo not drawn), the TGI in test [1], in test [2], in test [4], in test [5], in test [7] and in test [8] was more than 100 µM in each case.
For `O=C1c2ccccc2-c2[nH]c3cn[nH]c(=O)c3c21`, the TGI in test [1], in test [2], in test [3], in test [4], in test [5] and in test [7] was more than 100 µM throughout. Moreover, in test [8], the TGI is more than 100 µM.
With `O=C1c2ccccc2C(=O)N1c1nc(-c2ccc(Cl)cc2)cc(N2N=C(c3ccc(Br)cc3)CC2c2ccccc2)n1` (stereo not drawn), the TGI in test [1] is more than 23.3 µM; in test [2], 17.4 µM; in test [3], more than 24.1 µM; in test [5], more than 22.6 µM; in test [6] it was 0.966 µM; in test [7] it was more than 41.4 µM. In addition, the TGI in test [8] is more than 33 µM.
For `CSc1nc(NC(C)C)c2c(n1)Sc1nc3ccccc3n1C2O` (stereo not drawn), the TGI in test [2] was more than 100 µM; in test [3], more than 100 µM; in test [4], 65.3 µM; in test [5] it was more than 100 µM; in test [6], more than 100 µM; in test [7], more than 100 µM. In addition, in test [8], the TGI is more than 100 µM.
Take `COC(=O)C1=C(O)C(C(=O)OC)[C@]2(O)[C@H](C(=O)OC)[C@H]1C[C@@H](c1ccc([N+](=O)[O-])cc1)[C@H]2C(=O)OC` (stereo partly drawn): the TGI was more than 100 µM in test [1]; 68.1 µM in test [2]; 41.4 µM in test [3]; 58.4 µM in test [4]; 31.4 µM in test [5]; more than 100 µM in test [7]. This molecule also came in with a TGI in test [8] of more than 100 µM.
With `CO[C@]1(CN2CCN3CCCC[C@@H]3C2)/C=C/C[C@H](C)[C@@H](C)S(=O)(=O)NC(=O)c2ccc3c(c2)N(C[C@@H]2CC[C@H]21)C[C@@]1(CCCc2cc(Cl)ccc21)CO3`, the GI50 in test [1] was 2.4 µM; in test [2] it was 2.75 µM; in test [5] it was 1.03 µM; in test [6] it was 1.4 µM; in test [7], 2.82 µM; in test [8], 1.69 µM. Also, the TGI in test [1] amounted to 6.54 µM; in test [2], 10.6 µM; in test [5] it was 2.29 µM; in test [6] it was 2.73 µM; in test [7], 9.34 µM; in test [8], 6.61 µM.
With `CC(=O)Nc1cc(Nc2cc(=O)[nH]c(=O)[nH]2)ccc1C`, the TGI in test [1], in test [2], in test [3], in test [4], in test [6] and in test [7] was more than 100 µM each time. For the same molecule, the TGI in test [8] is more than 100 µM.
With `CCOP(=O)(OCC)/C(C#N)=C/c1cccn1Cc1ccccc1`, the TGI in test [1] was more than 100 µM; in test [2], more than 100 µM; in test [3], more than 100 µM; in test [4], 75.2 µM; in test [5], more than 100 µM; in test [6] it was more than 100 µM. This molecule yielded a TGI in test [7] of more than 100 µM.
With `C=C(C)[C@@H]1CC[C@]2(C(=O)O)CC[C@]3(C)[C@H](CCC4[C@@]5(C)CC[C@H](C(=O)/C=C/c6ccc(O)c(O)c6)C(C)(C)[C@@H]5CC[C@]43C)[C@@H]12` (stereo partly drawn), the TGI in test [1] was 28.1 µM; in test [2], more than 100 µM; in test [3] it was 54.5 µM; in test [5], 9.62 µM; in test [6], 7 µM; in test [7], 11 µM. The same molecule returned a TGI in test [8] of more than 100 µM.
Consider `Cc1nc(-c2cc3cc(Cl)ccc3oc2=O)cc2c1c(=O)oc1ccc(Cl)cc12`, for which the TGI in test [1], in test [2], in test [3], in test [4], in test [5] and in test [6] was more than 100 µM throughout. This molecule returned a TGI in test [7] of more than 100 µM.
Consider `O=[N+]([O-])c1cccnc1-n1cnc2ccccc21`, for which the TGI in test [1], in test [2], in test [3], in test [4], in test [6] and in test [7] was more than 100 µM in each case. In test [8], the TGI is more than 100 µM.
Take `CC1CC/C(=C\c2ccc(Cl)cc2)c2nc(N)c(C#N)c(-c3ccc(Cl)cc3)c21` (stereo not drawn): the TGI in test [2], in test [3], in test [4], in test [5], in test [6] and in test [7] was more than 100 µM each time. The molecule further returned a TGI in test [8] of more than 100 µM.
In the case of `O=C(NNCc1ccc(Cl)cc1)Nc1cccc2ccccc12`, the TGI in test [1], in test [3], in test [4], in test [5], in test [6] and in test [7] was more than 100 µM in each case. In test [8], this molecule had a TGI of more than 100 µM.
Take `CCN(CC)c1ccc2cc(-c3nc4ccccc4c(=O)[nH]3)c(=N)oc2c1`: the TGI in test [1], in test [2], in test [3], in test [4], in test [6] and in test [7] was more than 100 µM each time. In test [8], this molecule returned a TGI of more than 100 µM.
Regarding `O=c1cc(NCc2ccncc2)[nH]c(=O)[nH]1`, the TGI in test [2], in test [3], in test [4], in test [5], in test [6] and in test [7] was more than 100 µM in each case. Also, the TGI in test [8] was more than 100 µM.
As to `COc1ccccc1CNCCCCCCCCCCCCN1C(=O)c2ccc3c4c(ccc(c24)C1=O)C(=O)N(CCCCCCCCCCCCNCc1ccccc1OC)C3=O`, the GI50 was 2.91 µM in test [1]; more than 5 µM in test [2]; 0.908 µM in test [3]; more than 50 µM in test [4]; more than 50 µM in test [6]; more than 5 µM in test [7]. Besides, the GI50 in test [8] was more than 50 µM. Further, the TGI in test [1] was more than 50 µM; in test [2], more than 5 µM; in test [3] it was 1.94 µM; in test [4], more than 50 µM; in test [6], more than 50 µM; in test [7] it was more than 5 µM. This molecule showed a TGI in test [8] of more than 50 µM.
Regarding `NC(=O)CO/N=C1/C(c2c(O)[nH]c3ccccc23)=Nc2ccccc21`, the TGI in test [1], in test [2], in test [3], in test [4], in test [5] and in test [7] was more than 100 µM throughout. The TGI in test [8] was more than 100 µM.
